Source: patent publication US7008627B1, “Use of complexes for the preparation of compositions for the treatment of sensitive skin, preparation process and hypoallergenic compositions” (Johnson & Johnson Consumer France, priority 1996, dated 2006)
Several values for one entry are separate records, joined by “and”; a condition that tells them apart may be missing. Equal values may be shown once.

Key:
[1] = tested on: nitro derivatives (NO2^−); experiment: Production of nitro derivatives by keratinocytes after stimulation by IFN-γ + LPS; assay type: cell-based, human; conditions: for Production of nitro derivatives (NO2^−), value between brackets / Production of nitro derivatives (NO2^−): Table 5A, + 10 mg/ml of the product; for Production of nitro derivatives (NO2^−), value between brackets: keratinocytes not stimulated by IFN-γ + LPS; for Production of nitro derivatives (NO2^−): keratinocytes stimulated by IFN-γ + LPS, Expt-1 to Expt-4; for effect on the production of nitro derivatives / NO: keratinocytes stimulated by IFN-γ and LPS
Excerpt: (§1) The activities of the test products are therefore investigated with respect to human macrophage and keratinocyte cultures which are or are not stimulated by intereferon-γ+lipopolysaccharide (non-specific inflammation or by IL-4 (allergic inflammation). This type of stimulation places the cells in the context of a pro-oxidizing response (generation of NO or superoxide anion free radicals, which can be evaluated by measuring the production of nitrogeneous derivatives) and an immuno-inflammatory response (production of cytokines such as TNF-α).
(§2) The following products were used during this study: Escherichia coli LPS (Sigma), used at 1 μg/ml. IFN-γ and IL-4 are sourced from Immugenex (Los Angeles Calif.) and are used respectively at 1000 U/ml and 10 ng/ml, the monoclonal IgEs are sourced from Stallergene (Fresnes, France) and the anti-IgEs are from Nordic (Tilburg, Holland).
(§3) The confluent keratinocyte cultures are trypsinized and transferred into 24-well plates in fresh medium at the cellular density of 10^5 cells/ml/well. If appropriate, in the case of stimulation by IL-4, the presence of the IgE receptor (CD23) at the surface of the cells is verified by immunolabeling.
(§4) The cells are activated by the combination of IFN-γ and LPS for 3 to 4 days and the supernatants of these cultures are then recovered in order to quantitatively determine the nitrogeneous derivatives and TNF-α. Likewise, during stimulation by IgE, the cells are first activated by IL-4, so as to induce the CD23, and are then subsequently cultured and stimulated by the IgE-containing immune complexes for 3 to 5 days before recovering the different supernatants. In all the cases, cellular viability is achieved on conclusion of these cultures. In the specific case of macrophages, a long-term (7 to 12 days) viability study was carried out, so as to determine the protective effects of these products. Quantitative determination of the nitrogenous derivatives is carried out using the Griess approach and the TNF level is measured by using quantitative determination kits from Medgënix (Fleurus, Belgium).
(§5) In this study, the product H37 (10 mg/ml) is added 30 min before stimulation by IFN-γ+LPS.
(§6) In this study, the products (10 mg/ml or 1/100 v/v) are added 30 min before stimulation by IFN-γ+LPS. In none of the cases have these products shown a cytotoxic activity.

TNF [2] = experiment: Production of TNF by keratinocytes after stimulation by IL-4 and IgE-containing immune complexes; assay type: cell-based, human
Procedure: (§7) To evaluate the allergic inflammation, the cells are activated by IL-4, which induces the CD23 receptor, and then by IgE-containing immune complexes. In all cases, the cellular supernatants are analysed after the activation.
as §2, §3, §4
(§8) On completion of this culturing period, 30 to 80% of the keratinocytes and of the macrophages express CD23. The individual variations are in no case the reflection of a different allergic situation between these individuals. […]

[3] = tested on: keratinocytes and macrophages; experiment: Overall anti-inflammatory activity (non-specific and allergic) on stimulated keratinocytes and macrophages; assay type: cell-based, human; conditions: conclusion from the IFN-γ + LPS (non-specific) and IL-4/IgE (allergic) models
Excerpt: as §1, §7
(§9) The cells are activated by the combination of IFN-γ and LPS for 3 to 4 days and the supernatants of these cultures are then recovered in order to quantitatively determine the nitrogeneous derivatives and TNF-α. […] Quantitative determination of the nitrogenous derivatives is carried out using the Griess approach and the TNF level is measured by using quantitative determination kits from Medgënix (Fleurus, Belgium).

[4] = tested on: nitro derivatives (NO2^−); experiment: Production of nitro derivatives by macrophages after stimulation by IFN-γ + LPS; assay type: cell-based, human; conditions: for Production of nitro derivatives (NO2^−), value between brackets: Table 5A, macrophages not stimulated by IFN-γ + LPS, + 10 mg/ml of the product; for effect on the production of nitro derivatives: macrophages stimulated by IFN-γ and LPS
Excerpt: as §1, §2
(§10) The macrophage cells are obtained from the peripheral blood of normal donors (non-allergic). The mononuclear cells are isolated on a ficoll gradient and the ring of lymphoid cells is recovered and washed three times and the cells are then cultured so as to cause the macrophage cells to adhere. These cells are recovered after adhering for 1 hour and are cultured (10^6 cells/ml/well). If appropriate, in the case of stimulation by IL-4, the presence of the IgE receptor (CD23) at the surface of the cells is verified by immunolabelling.
as §4, §5, §6

TNF [5] = experiment: Production of TNF by macrophages after stimulation by IL-4 and IgE-containing immune complexes; assay type: cell-based, human
Procedure: as §7, §2
as §10, with “If appropriate, in the case of stimulation by IL-4, the presence of the IgE receptor (CD23) at the surface of the cells is verified by immunolabelling.” left out
as §9, with “Belgium). […]” for “Belgium).”

[6] = tested on: nitro derivatives (NO2^−); experiment: Production of nitro derivatives by macrophages after stimulation by IL-4 and IgE-containing immune complexes; assay type: cell-based, human; conditions: for Production of nitro derivatives (NO2^−): macrophages stimulated by IgE-containing immune complexes (IL-4), Expt-1 to Expt-4
Procedure: as §7, §2, §10, §4
On completion of this culturing period, 30 to 80% of the keratinocytes and of the macrophages express CD23. The individual variations are in no case the reflection of a different allergic situation between these individuals.
After the CD23 has been taken up by IgE-containing immune complexes, the production of a large number of mediators and cytokines (in particular TNF) and of products resulting from the oxidative metabolism, such as nitrogenous derivatives, is induced. This stimulation redefines in vitro an allergic-type inflammatory reaction.
as §8

TNF [7] = experiment: Production of TNF by macrophages after stimulation by IFN-γ + LPS; assay type: cell-based, human; conditions: for effect on the production of TNF: macrophages stimulated by IFN-γ and LPS
Excerpt: as §1, §2, §10
as §4, with “In all the cases, cellular viability is achieved on conclusion of these cultures. In the specific case of macrophages, a long-term (7 to 12 days) viability study was carried out, so as to determine the protective effects of these products.” left out, “Belgium). […]” for “Belgium).”

TNF [8] = experiment: Production of TNF by keratinocytes after stimulation by IFN-γ + LPS; assay type: cell-based, human; conditions: for Production of TNF: keratinocytes stimulated by IFN-γ + LPS, Expt-1 to Expt-4; for effect on the production of TNF: keratinocytes stimulated by IFN-γ and LPS
Excerpt: as §1, §2, §3, §4, §5, §6

[9] = tested on: nitro derivatives (NO2^−); experiment: Production of nitro derivatives by keratinocytes after stimulation by IL-4 and IgE-containing immune complexes; assay type: cell-based, human
Procedure: as §7, §2, §3
as §9, with “Belgium). […]” for “Belgium).”

keratinocytes = experiment: Dose effect of K18 on the inflammatory functions of the keratinocytes (FIG. 1); assay type: cell-based, human
Procedure: FIG. 1: Dose effect of carboxymethyl-β-glucan with respect to the inflammatory functions of the keratinocytes.
Consequently, the effects of the product K18 were evaluated as a function of the dose. The results are illustrated in FIG. 1.

IL-1α = experiment: Summary table: anti-inflammatory activity, IL-1α; assay type: cell-based; conditions: result in words
Excerpt: (§11) It is possible in particular to operate on keratinocytes and macrophage cells because these are cells which are essential for the development of a local inflammatory reaction. Moreover, macrophages are particularly advantageous cells because, due to the fact that these are resident cells in the skin, they regulate not only local inflammatory reactions but they also regulate the immune responses by their ability to present the antigen and to produce a great number of cytokines which regulate local immunity. These macrophages are also involved in communications with the circulatory system which can, if appropriate, mobilize different cell types (monocytes, neutrophils, eosinophils and T lymphocytes), thus increasing the non-specific and specific defensive power of the tissue under consideration.
as §1

TNF-α = experiment: Summary table: anti-inflammatory activity, TNF-α; assay type: cell-based, human; conditions: result in words
Excerpt: as §11, §1

catalase = experiment: Summary table: anti-free radicals activity, catalase; conditions: result in words
Excerpt: (§12) Enzymes which are active in endogenous defence systems against free radicals are, for example, SOD (or superoxide -disumtase), catalase or glutathione peroxidase; attempts will be made to stimulate the production of these enzymes or they can be introduced exogeneously.

glutathione peroxidase = experiment: Summary table: anti-free radicals activity, glutathione peroxidase; conditions: result in words
Excerpt: as §12

[10] = tested on: mixed lympho-epidermal cultures (MLEC); experiment: Summary table: anti-allergic activity, mixed lympho-epidermal cultures (MLEC), lymphocyte proliferation; assay type: cell-based; conditions: result in words
Excerpt: The activity of the components is also confirmed on mixed lympho-epidermal cultures (MLEC).
In the skin, Langherans cells indeed play an essential role in the […] of the antigen and keratinocytes generate factors which are involved in the immune response, thus constituting a cutaneous immune system. MLECs make it possible to determine the immuno-modulatory properties of substance by measuring the lymphocyte proliferation induced by the antigen-presenting allogenic epidermal cells, with or without treatment by the substance.

[11] = tested on: peroxidation of the lipids; experiment: Summary table: anti-free radicals activity, peroxidation of the lipids; conditions: result in words
PGE2 = experiment: Summary table: anti-inflammatory activity, PGE2; assay type: cell-based; conditions: result in words
Excerpt: as §11, §1

LTB4 = experiment: Summary table: anti-inflammatory activity, LTB4; assay type: cell-based; conditions: result in words
Excerpt: as §11, §1

NO = experiment: Summary table: anti-free radicals activity, NO; assay type: cell-based, human; conditions: result in words
Excerpt: as §11, §1

[12] = keratinocytes stimulated by IL-4
[13] = Table 6A, + 10 mg/ml of the product
[14] = Table 5B, + 10 mg/ml of the product

For Carboxymethyl-β-glucan [K18], the “Production of nitro derivatives (NO2^−), value between brackets” value (“Production … (NO2^−), value between brackets” for short) [1] was 1 µM, the “Production of nitro derivatives (NO2^−)” value [1] was 13 µM and 14 µM and 11 µM and 7 µM and the “effect on the production of nitro derivatives / NO” value [1] was “high ability to inhibit”. For the same substance, the “effect on the production of TNF” value (TNF [2]; [12]) was “inhibitory activity”, the “anti-inflammatory activity” value [3] was “non-specific and allergic-type anti-inflammatory activity” and the “Production … (NO2^−), value between brackets” value [4] was 1 µM and 2 µM. For the same substance, the “effect on the production of nitro derivatives” value [4] was “high ability to inhibit”, the “effect on the production of TNF” value (TNF [5]; macrophages stimulated by IL-4) was “inhibitory activity” and the “Production … (NO2^−), value between brackets” value ([6]; Table 6A, macrophages not stimulated by IgE-containing immune complexes, + 10 mg/ml of the product) was 2 µM and 4 µM. The “Production of nitro derivatives (NO2^−)” value [6, 13] was 7 µM and 6 µM and 10 µM, the “effect on the production of nitro derivatives” value ([6]; macrophages stimulated by IL-4) was “inhibitory activity” and the “effect on the production of TNF” value (TNF [7]) was “efficiently inhibit”. For the same substance, the “Production of TNF” value (TNF [8]; [14]) was 130 pg/mL and 95 pg/mL and 85 pg/mL and 82 pg/mL, the “effect on the production of TNF” value (TNF [8]) was “efficiently inhibit” and the “Production … (NO2^−), value between brackets” value ([9]; Table 6A, keratinocytes not stimulated by IgE-containing immune complexes, + 10 mg/ml of the product) was 2 µM and 4 µM. The “effect on the production of nitro derivatives” value [9, 12] was “inhibitory activity”, the “generation of TNF as a function of the dose” value (keratinocytes) was “inhibits, in a dose-dependent way” and the “generation of nitro derivatives as a function of the dose” value (keratinocytes) was “inhibits, in a dose-dependent way”.
For poly-β(1→3)-glucopyranose [K17], the “Production … (NO2^−), value between brackets” value [1] was 2 µM and 1 µM, the “Production of nitro derivatives (NO2^−)” value [1] was 15 µM and 16 µM and 8 µM and the “effect on the production of nitro derivatives / NO” value [1] was “high ability to inhibit”. For the same substance, the “Production of TNF, value between brackets” value (TNF [2]; Table 6B, keratinocytes not stimulated by IgE-containing immune complexes, + product) was 35 pg/mL and 31 pg/mL and 32 pg/mL and 40 pg/mL, the “Production of TNF” value (TNF [2]; Table 6B, keratinocytes stimulated by IL-4 / IgE-containing immune complexes, + product, Expt-1 to Expt-4) was 185 pg/mL and 111 pg/mL and 120 pg/mL and 132 pg/mL and the “anti-inflammatory activity” value [3] was “only has a non-specific anti-inflammatory activity”. The “Production … (NO2^−), value between brackets” value [4] was 2 μM and 1 μM and 1.5 μM and 2 (2) μM, the “effect on the production of nitro derivatives” value [4] was “high ability to inhibit” and the “Production of TNF, value between brackets” value (TNF [5]; Table 6B, macrophages not stimulated by IgE-containing immune complexes, + product) was 45 pg/mL and 41 pg/mL and 32 pg/mL. The “Production of nitro derivatives (NO2^−)” value [6, 13] was 16 µM and 17 µM and 19 µM and 30 µM, the “Production of TNF” value (TNF [7]; Table 5B, macrophages stimulated by IFN-γ + LPS, + 10 mg/ml of the product, Expt-1 to Expt-4) was 605 pg/mL and 902 pg/mL and 970 pg/mL and 695 pg/mL and the “effect on the production of TNF” value (TNF [7]) was “efficiently inhibit”. For the same substance, the “Production of TNF, value between brackets” value (TNF [8]; Table 5B, keratinocytes not stimulated by IFN-γ + LPS, + 10 mg/ml of the product, ND = non-detectable) was 95 pg/mL, the “Production of TNF” value (TNF [8]; [14]) was 125 pg/mL and 98 pg/mL and 100 pg/mL and 70 pg/mL and the “effect on the production of TNF” value (TNF [8]) was “efficiently inhibit”.
For β-Glucan, the “Anti-inflammatory: IL-1α” value (IL-1α) was “inhibition”, the “Anti-inflammatory: TNF-α” value (TNF-α) was “inhibition” and the “Anti-free radicals: catalase” value (catalase) was “stimulation”. The “Anti-free radicals: glutathione peroxidase” value (glutathione peroxidase) was “stimulation”, the “Anti-allergic: MLEC” value [10] was “no effect” and the “Anti-free radicals: peroxidation of the lipids” value [11] was “no effect”. The “Anti-inflammatory: PGE2” value (PGE2) was “inhibition”, the “Anti-inflammatory: LTB4” value (LTB4) was “no effect” and the “Anti-free radicals: NO” value (NO) was “inhibition”.
